Reference: the NIST ThermoML archive (doi:10.1021/acs.jced.9b00846)

Conditions: Liquid, Vibrating tube method

CC(C)C(C)C(C)C [2,3,4-trimethylpentane]
Conditions | mass density [kg/m3]
283.15 K, 130 kPa | 728.3
283.15 K, 4973 kPa | 732.2
283.15 K, 9993 kPa | 736
283.15 K, 14965 kPa | 739.6
283.15 K, 20000 kPa | 743
283.15 K, 25003 kPa | 746.3
283.15 K, 29990 kPa | 749.5
283.15 K, 35009 kPa | 752.5
283.15 K, 39961 kPa | 755.4
283.15 K, 45014 kPa | 758.3
283.15 K, 49986 kPa | 761
283.15 K, 54944 kPa | 763.6
283.15 K, 60030 kPa | 766.3
283.15 K, 65014 kPa | 768.8
288.15 K, 102 kPa | 724.3
288.15 K, 5015 kPa | 728.4
288.15 K, 9991 kPa | 732.3
288.15 K, 14975 kPa | 736
288.15 K, 20038 kPa | 739.6
288.15 K, 25021 kPa | 743
288.15 K, 29929 kPa | 746.1
288.15 K, 35037 kPa | 749.3
288.15 K, 40039 kPa | 752.3
288.15 K, 44998 kPa | 755.2
288.15 K, 49927 kPa | 757.9
288.15 K, 54967 kPa | 760.6
288.15 K, 59925 kPa | 763.2
288.15 K, 65032 kPa | 765.9
293.15 K, 111 kPa | 720.4
293.15 K, 5021 kPa | 724.6
293.15 K, 9998 kPa | 728.6
293.15 K, 14997 kPa | 732.4
293.15 K, 19997 kPa | 736.1
293.15 K, 25022 kPa | 739.6
293.15 K, 29930 kPa | 742.8
293.15 K, 34968 kPa | 746
293.15 K, 39974 kPa | 749.1
293.15 K, 45009 kPa | 752
293.15 K, 49965 kPa | 754.9
293.15 K, 54987 kPa | 757.6
293.15 K, 59945 kPa | 760.3
293.15 K, 65000 kPa | 762.9
298.15 K, 105 kPa | 716.2
298.15 K, 5072 kPa | 720.6
298.15 K, 9964 kPa | 724.7
298.15 K, 15013 kPa | 728.7
298.15 K, 20054 kPa | 732.5
298.15 K, 25008 kPa | 736
298.15 K, 29968 kPa | 739.4
298.15 K, 34937 kPa | 742.6
298.15 K, 40018 kPa | 745.8
298.15 K, 45064 kPa | 748.8
298.15 K, 50010 kPa | 751.7
298.15 K, 55015 kPa | 754.5
298.15 K, 59955 kPa | 757.2
298.15 K, 65024 kPa | 759.9
303.15 K, 100 kPa | 712
303.15 K, 4934 kPa | 716.5
303.15 K, 10038 kPa | 720.9
303.15 K, 14973 kPa | 724.9
303.15 K, 19957 kPa | 728.7
303.15 K, 25002 kPa | 732.4
303.15 K, 29980 kPa | 735.9
303.15 K, 34972 kPa | 739.3
303.15 K, 39972 kPa | 742.5
303.15 K, 44990 kPa | 745.6
303.15 K, 49984 kPa | 748.5
303.15 K, 54948 kPa | 751.4
303.15 K, 59951 kPa | 754.2
303.15 K, 65040 kPa | 756.9
308.15 K, 92 kPa | 707.8
308.15 K, 5051 kPa | 712.5
308.15 K, 9961 kPa | 716.8
308.15 K, 14959 kPa | 721
308.15 K, 20027 kPa | 725
308.15 K, 25025 kPa | 728.8
308.15 K, 29996 kPa | 732.4
308.15 K, 34959 kPa | 735.7
308.15 K, 40017 kPa | 739.1
308.15 K, 45023 kPa | 742.2
308.15 K, 49965 kPa | 745.2
308.15 K, 54977 kPa | 748.2
308.15 K, 60020 kPa | 751
308.15 K, 64995 kPa | 753.8
313.15 K, 99 kPa | 703.6
313.15 K, 4997 kPa | 708.5
313.15 K, 9998 kPa | 713.1
313.15 K, 15010 kPa | 717.4
313.15 K, 19994 kPa | 721.4
313.15 K, 25007 kPa | 725.3
313.15 K, 29995 kPa | 729
313.15 K, 35008 kPa | 732.4
313.15 K, 39993 kPa | 735.8
313.15 K, 45005 kPa | 739
313.15 K, 49990 kPa | 742.1
313.15 K, 55003 kPa | 745.1
313.15 K, 59996 kPa | 748
313.15 K, 64993 kPa | 750.8
318.15 K, 104 kPa | 699.5
318.15 K, 4961 kPa | 704.4
318.15 K, 10003 kPa | 709.2
318.15 K, 15026 kPa | 713.7
318.15 K, 19937 kPa | 717.8
318.15 K, 25012 kPa | 721.8
318.15 K, 29990 kPa | 725.5
318.15 K, 34991 kPa | 729.1
318.15 K, 39976 kPa | 732.5
318.15 K, 45028 kPa | 735.8
318.15 K, 49973 kPa | 739
318.15 K, 54916 kPa | 742
318.15 K, 59988 kPa | 744.9
318.15 K, 65015 kPa | 747.8
323.15 K, 111 kPa | 695.4
323.15 K, 5025 kPa | 700.6
323.15 K, 10013 kPa | 705.5
323.15 K, 14973 kPa | 710
323.15 K, 20028 kPa | 714.4
323.15 K, 25014 kPa | 718.4
323.15 K, 29976 kPa | 722.2
323.15 K, 34994 kPa | 725.9
323.15 K, 39992 kPa | 729.4
323.15 K, 45046 kPa | 732.8
323.15 K, 49980 kPa | 736
323.15 K, 54968 kPa | 739.1
323.15 K, 59988 kPa | 742.1
323.15 K, 65068 kPa | 745
328.15 K, 94 kPa | 691.3
328.15 K, 4971 kPa | 696.6
328.15 K, 9997 kPa | 701.7
328.15 K, 14959 kPa | 706.4
328.15 K, 19969 kPa | 710.9
328.15 K, 25055 kPa | 715.1
328.15 K, 29960 kPa | 719
328.15 K, 34966 kPa | 722.7
328.15 K, 40013 kPa | 726.3
328.15 K, 45034 kPa | 729.8
328.15 K, 50015 kPa | 733.1
328.15 K, 54973 kPa | 736.2
328.15 K, 59955 kPa | 739.2
328.15 K, 64992 kPa | 742.2
333.15 K, 95 kPa | 687.1
333.15 K, 4934 kPa | 692.6
333.15 K, 9973 kPa | 697.9
333.15 K, 14973 kPa | 702.8
333.15 K, 19993 kPa | 707.4
333.15 K, 24959 kPa | 711.6
333.15 K, 29952 kPa | 715.7
333.15 K, 34974 kPa | 719.5
333.15 K, 39961 kPa | 723.2
333.15 K, 44999 kPa | 726.7
333.15 K, 49992 kPa | 730.1
333.15 K, 54798 kPa | 733.2
333.15 K, 59952 kPa | 736.4
333.15 K, 65050 kPa | 739.5
338.15 K, 115 kPa | 683.1
338.15 K, 4978 kPa | 688.9
338.15 K, 9970 kPa | 694.3
338.15 K, 14966 kPa | 699.3
338.15 K, 19960 kPa | 703.9
338.15 K, 24994 kPa | 708.4
338.15 K, 30030 kPa | 712.5
338.15 K, 34973 kPa | 716.3
338.15 K, 39979 kPa | 720
338.15 K, 45024 kPa | 723.6
338.15 K, 50019 kPa | 727.1
338.15 K, 54928 kPa | 730.3
338.15 K, 59953 kPa | 733.5
338.15 K, 64998 kPa | 736.6
343.15 K, 109 kPa | 678.8
343.15 K, 5084 kPa | 684.9
343.15 K, 9963 kPa | 690.4
343.15 K, 15039 kPa | 695.6
343.15 K, 20010 kPa | 700.4
343.15 K, 24998 kPa | 704.9
343.15 K, 30054 kPa | 709.2
343.15 K, 35048 kPa | 713.2
343.15 K, 40023 kPa | 717
343.15 K, 44967 kPa | 720.6
343.15 K, 50023 kPa | 724.2
343.15 K, 54967 kPa | 727.5
343.15 K, 59995 kPa | 730.7
343.15 K, 64954 kPa | 733.8
348.15 K, 112 kPa | 674.5
348.15 K, 5011 kPa | 680.8
348.15 K, 10066 kPa | 686.6
348.15 K, 14992 kPa | 691.9
348.15 K, 19955 kPa | 696.8
348.15 K, 25042 kPa | 701.5
348.15 K, 29986 kPa | 705.8
348.15 K, 35004 kPa | 709.9
348.15 K, 40002 kPa | 713.9
348.15 K, 44996 kPa | 717.6
348.15 K, 49994 kPa | 721.1
348.15 K, 54995 kPa | 724.6
348.15 K, 60005 kPa | 727.9
348.15 K, 65009 kPa | 731
353.15 K, 109 kPa | 670.1
353.15 K, 4963 kPa | 676.6
353.15 K, 9919 kPa | 682.5
353.15 K, 15039 kPa | 688.2
353.15 K, 19995 kPa | 693.2
353.15 K, 24983 kPa | 698
353.15 K, 29960 kPa | 702.4
353.15 K, 34985 kPa | 706.7
353.15 K, 39983 kPa | 710.7
353.15 K, 45037 kPa | 714.5
353.15 K, 49989 kPa | 718.1
353.15 K, 54953 kPa | 721.6
353.15 K, 59909 kPa | 724.9
353.15 K, 65052 kPa | 728.2
358.15 K, 118 kPa | 665.9
358.15 K, 4955 kPa | 672.5
358.15 K, 9916 kPa | 678.7
358.15 K, 15035 kPa | 684.5
358.15 K, 19946 kPa | 689.6
358.15 K, 25037 kPa | 694.6
358.15 K, 29963 kPa | 699.2
358.15 K, 35027 kPa | 703.4
358.15 K, 40010 kPa | 707.5
358.15 K, 44955 kPa | 711.4
358.15 K, 50023 kPa | 715.1
358.15 K, 54980 kPa | 718.7
358.15 K, 59952 kPa | 722
358.15 K, 65021 kPa | 725.4
363.15 K, 101 kPa | 661.3
363.15 K, 4941 kPa | 668.3
363.15 K, 9928 kPa | 674.7
363.15 K, 15005 kPa | 680.6
363.15 K, 19958 kPa | 686
363.15 K, 24923 kPa | 691
363.15 K, 29983 kPa | 695.8
363.15 K, 34922 kPa | 700.1
363.15 K, 39992 kPa | 704.4
363.15 K, 45038 kPa | 708.4
363.15 K, 49985 kPa | 712.2
363.15 K, 54981 kPa | 715.8
363.15 K, 59985 kPa | 719.3
363.15 K, 65038 kPa | 722.6
